BindingDB's records for doi:10.1021/ml200284s (2012)

Assay: Inhibition of dynamin1-mediated endocytosis in human U2OS cells assessed as inhibition of Texas red-Tf uptake incubated for 30 mins prior to Texas red-Tf addition measured after 8 mins by receptor-mediated endocytosis assay

Which IC50 does the source give for O=C1N=C(S)SC1=Cc1cc(Cl)cc(Cl)c1 here?
The IC50 was 18.1 µM.

Which IC50 does the source give for C=CCN1C(=O)/C(=C/c2ccc(OCCCN(C)C)cc2)SC1=S here?
Its IC50 is 5.9 µM.

For O=C(O)CN1C(=O)/C(=C/c2csc3ccc(Cl)cc23)SC1=S, which IC50 is on record?
Its IC50 is > 100 µM.
